# Experimental data from patent US9211278B2, “Composition containing arylnaphthalene lignan derivative for preventing and/or treating dementia” (KOREA INSTITUTE OF SCIENCE AND TECHNOLOGY, priority 2012, dated 2015).
# Tests used:
# [1] = test system: HeLa cell line transfected with the amyloid precursor protein (APP); assay: MTT cell proliferation assay (cell death); format: cell-based; details: 5 μg/ml, 8 hours
# Method: To test the effect of Justicidin A and 5-methoxyJusticidin A on cell death, the MTT Cell Proliferation assay method (ATCC catalog #30-1010K, Manassas, USA) was used. Specifically, the HeLa cell line transfected with the amyloid precursor protein (APP) driven from human was treated with various concentrations of Justicidin A (S62-C1) or 5-methoxyJusticitdin A (S62-C2) for 8 hours, and the viable cells were quantified to show the result in FIG. 3.
# transferrin endocytosis = assay: Transferrin endocytosis (confocal microscopy); format: cell-based, human; details: 1 uM, 10, 30, 60 min at 37° C.
# Method: The reduced endocytosis rate may be caused by total reduction of endocytosis other than the specific reduction of APP endocytosis rate, because many proteins other than APP can be modified to include the O-glycosylation and the like, by Justicidin A. Thus, the effect of Justicidin A to transferrin, internalized by clathrin-dependent endocytosis like APP was measured, in order to identify selectivity of reducing of APP endocytosis rate by O-glycosylation.
# 5×10^5 cells of HeLa cell line transfected with amyloid precursor protein (APP) same as above, incubated for 24 hrs, 1 uM Justicidin A treated at 4° C. for 45 min. Then, transferrin was fluorescent-labeled by treating Alexa Fluor 488 conjugated transferrin (25 ug/ml concentration, #T13342, Invitrogen). Transferrin endocytosis was progressed depending on the incubation time 10, 30, 60 min at 37° C., then remained transferrin was washed out by treating pH 5.5 buffer (0.1M sodium acetate, 0.05M NaCl) to cell surface for 5 min
# Intracellular location of transferrin was measured by confocal microscopy (LSM510, Zeiss, Germany) at 488 nm.
# PC12 cell = assay: Cell viability assay, Cell counting kit-8; format: cell-based; details: 125 nM to 1000 nM, 24 hrs
# Method: Firstly, cell viability assay was performed for identifying whether Justicidin A had toxicity to normal brain cell line. Cell viability assay performed using Cell counting kit-8 (CCK-8, WST-8, Kamimashikigun, Kumamoto, Japan). More particularly, 1.5×10^4 cells of PC12 (Cell No. RCB0009, RIKEN BRC Cell Bank, Tsukuba, Ibaraki, Japan) were seeded to each well of 96-well plate, and incubated for 24 hrs. Then various concentrations of Justicidin A were treated for 24 hrs, and measured by Cell counting kit-8.
# [2] = test system: PC12 cell treated with Aβ25-35; assay: Protection against cellular toxicity induced by Aβ25-35; format: cell-based; details: 30 uM Aβ25-35, 48 hrs
# Method: To identify the protecting effect against cellular toxicity induced by Aβ, PC12 cell was treated with Justicidin A and Aβ25-35 and measured cell viability. More particularly, 1.5×10^4 cells of PC12 were seeded to each well of 96-well plate, and incubated for 24 hrs. Then, the plate was treated with various concentrations of Justicidin A 30 min, treated 30 uM Aβ25-35, and incubated for 48 hrs. Cell viability was measured by Cell counting kit-8 to show the result FIG. 12b.
# male ICR mouse = assay: Novel object recognition test, scopolamine-impaired memory model; format: in vivo; details: oral, 10 mg/kg and 20 mg/kg; compared with 2 mg/kg Donepezil
# Method: The male ICR mouse was 5 to 6-week age (25˜30 g of body weight) (Orientbio Inc., Seougnam, Republic of Korea), and was raised with solid feed and tap water for 1 week before being used for test. For 3 days before the test, each mouse to get adjusted to Arena (grey mat acryl material, 50 cm×50 cm×60 cm) went freely into the Arena for 10 minutes per a day.
# At a first day, the normal control group and the group administered by the scopolamine were fed with 5% (v/v) DMSO-saline, the test group was orally administered by 1, 5, 10 and 20 mg/kg/10 ml of Justicidin A (C1) in 5% DMSO-Saline, and the comparative group was administered with 2 mg/kg/10 ml of Donepezil (brand name: Aricept, Eisai) being commercially available as a drug for treating an dementia of the Alzheimer's type. After 30 minutes, the groups were intraperitoneally injected by scopolamine (Sigma-Aldrich Chemical Co., St Louis, USA) at 1 mg/kg/10 ml. […]
# At the second day, the mice were dropped into the Arena without treatment of additional drug and scopolamine. […] Entire test was automatically recorded and analyzed with Noldus Ethovision 7.0 program (Noldus Information Technology, USA). The time when the mice sought the object in 3 minutes after dropping two objects at second day of test were measured and calculated as Memory Index (%, ratio of time for Novel object recognition to entire time for recognition). […]
structure (smiles),measurement,setting,value
COc1cc2c(OC)c3c(c(-c4ccc5c(c4)OCO5)c2cc1OC)C(=O)OC3 [Justicidin A],cell lines died,[1],≤ 20%
same,transferrin endocytosis,transferrin endocytosis,no effect of Justicidin A to transferrin endocytosis
same,toxicity to PC12 cell,PC12 cell,has no toxicity to PC12 cell
same,toxicity induced by Aβ25-35,[2],reduced the toxicity induced by Aβ25-35 in a concentration-dependent manner
same,memory and learning ability (Memory Index),male ICR mouse,showed high memory and learning ability
